Laboratory results reported in PubChem BioAssay AID248 (DTP/NCI, 2004).
Several values for one entry are separate records, joined by “and”; a condition that tells them apart may be missing. Identical values can stand only once. Toxic doses and inconclusive results are not listed. Cut-off read from the data, not from the text of the source: active = T/C of 150% or more; inactive = T/C below 125%.

System: L1210 leukemia ip in BDF1 mice, survival T/C
Assay: NCI In Vivo Anticancer Drug Screen. Data for tumor model L1210 Leukemia (intraperitoneal) in B6D2F1 (BDF1) mice
Settings: endpoint: mean survival time, higher = longer survival
Summary of the method: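 Value reflects the ratio of survival in compound-treated mice to survival in vehicle-treated controls, with both groups carrying the same transplanted tumor.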

[1] = dose: 100.0 mg/kg/injection, schedule: Q01DX001 (ip), vehicle: other
[2] = dose: 200.0 mg/kg/injection, schedule: Q01DX001 (ip), vehicle: other
[3] = dose: 400.0 mg/kg/injection, schedule: Q01DX001 (ip), vehicle: other
[4] = dose: 100.0 mg/kg/injection, schedule: Q04DX003 (ip), vehicle: other
[5] = dose: 200.0 mg/kg/injection, schedule: Q04DX003 (ip), vehicle: other
[6] = dose: 400.0 mg/kg/injection, schedule: Q04DX003 (ip), vehicle: other
[7] = dose: 100.0 mg/kg/injection, schedule: Q01DX001 (ip), vehicle: saline
[8] = dose: 200.0 mg/kg/injection, schedule: Q01DX001 (ip), vehicle: saline
[9] = dose: 400.0 mg/kg/injection, schedule: Q01DX001 (ip), vehicle: saline
[10] = dose: 100.0 mg/kg/injection, schedule: Q04DX003 (ip), vehicle: saline with Tween-80
[11] = dose: 200.0 mg/kg/injection, schedule: Q04DX003 (ip), vehicle: saline with Tween-80
[12] = dose: 400.0 mg/kg/injection, schedule: Q04DX003 (ip), vehicle: saline with Tween-80
[13] = dose: 100.0 mg/kg/injection, schedule: Q01DX009 (ip), vehicle: Klucel (hydroxypropylcellulose) (HPC)
[14] = dose: 200.0 mg/kg/injection, schedule: Q01DX009 (ip), vehicle: Klucel (hydroxypropylcellulose) (HPC)
[15] = dose: 400.0 mg/kg/injection, schedule: Q01DX009 (ip), vehicle: Klucel (hydroxypropylcellulose) (HPC)
[16] = dose: 75.0 mg/kg/injection, schedule: Q01DX001 (ip), vehicle: saline
[17] = dose: 100.0 mg/kg/injection, schedule: Q04DX002 (ip), vehicle: saline
[18] = dose: 200.0 mg/kg/injection, schedule: Q04DX002 (ip), vehicle: saline
[19] = dose: 400.0 mg/kg/injection, schedule: Q04DX002 (ip), vehicle: saline
[20] = dose: 100.0 mg/kg/injection, schedule: Q04DX003 (ip), vehicle: Klucel (hydroxypropylcellulose) (HPC)
[21] = dose: 200.0 mg/kg/injection, schedule: Q04DX003 (ip), vehicle: Klucel (hydroxypropylcellulose) (HPC)
[22] = dose: 400.0 mg/kg/injection, schedule: Q04DX003 (ip), vehicle: Klucel (hydroxypropylcellulose) (HPC)

Measured: T/C

O=C1/C(=C\c2ccccn2)c2ccccc2N1Cl
inactive: [1] 94 % of control | [2] 92 % of control | [3] 94 % of control

O=C(O)C1C2CC3C(C2)C31 (centres undefined)
inactive: [4] 97 % of control | [5] 98 % of control | [6] 88 % of control

COC(COS(=O)(=O)c1ccc(Br)cc1)(c1ccccc1)c1ccccc1
inactive: dose: 50.0 mg/kg/injection, schedule: Q01DX009 (ip), vehicle: saline with Tween-80 87 % of control

O=[N+]([O-])Nc1ccnnc1
inactive: [7] 94 % of control | [8] 96 % of control | [9] 96 % of control

CC(C)(C)OC(=O)N/N=C/c1ccc2c(c1)CCC2
inactive: [10] 100 % of control | [11] 100 % of control | [12] 94 % of control

COc1ccc2ncc(C)c(C=O)c2c1
inactive: [13] 95 % of control | [14] 96 % of control | [15] 110 % of control

CSC(CC(=O)O)C(=O)O (centres undefined)
inactive: [16] 97 % of control | dose: 150.0 mg/kg/injection, schedule: Q01DX001 (ip), vehicle: saline 108 % of control

CC1OC(C(Cl)(Cl)Cl)NC1=O (centres undefined)
inactive: [17] 89 % of control | [18] 99 % of control | [19] 89 % of control

NC(Cc1c[nH]c2ccc(F)cc12)C(=O)O (centres undefined)
inactive: [1] 95 % of control | [4] 119 % of control | [2] 95 % of control | [5] 102 % of control | [3] 89 % of control

CCC(C)N=Cc1ccccc1O.CCC(C)N=Cc1ccccc1O.[Cu] (centres undefined)
inactive: dose: 9.5 mg/kg/injection, schedule: Q01DX001 (ip), vehicle: other 100 % of control | dose: 19.0 mg/kg/injection, schedule: Q01DX001 (ip), vehicle: other 107 % of control | dose: 38.0 mg/kg/injection, schedule: Q01DX001 (ip), vehicle: other 100 % of control

O=C(COC(=O)c1c(Cl)c(Cl)c(Cl)c(Cl)c1C(=O)O)c1ccc(-c2ccccc2)cc1
inactive: [7] 94 % of control | [8] 102 % of control | [9] 91 % of control

CC1(C)OCC(/C=C/C=N/Nc2ccc([N+](=O)[O-])cc2)O1 (centres undefined)
inactive: [10] 94 % of control | [11] 96 % of control | [12] 91 % of control

C(=N\Nc1nc2ccccc2s1)/c1cccnc1
inactive: [13] 98 % of control | [14] 98 % of control | [15] 101 % of control

CN(C)CCN=Cc1[nH]c(=S)[nH]c(=O)c1Cc1ccc(Cl)cc1
inactive: [20] 101 % of control | [21] 94 % of control | [22] 95 % of control

CS(=O)(=O)OCCN1CCC2(CC1)SSC1(CCN(CCOS(C)(=O)=O)CC1)S2
inactive: dose: 6.25 mg/kg/injection, schedule: Q01DX009 (ip), vehicle: saline 98 % of control | dose: 12.5 mg/kg/injection, schedule: Q01DX009 (ip), vehicle: saline 101 % of control | dose: 12.5 mg/kg/injection, schedule: Q04DX003 (ip), vehicle: saline 108 % of control | dose: 25.0 mg/kg/injection, schedule: Q04DX003 (ip), vehicle: saline 95 % of control

CC/C(=N/N=C(N)N)c1ccc(F)cc1
inactive: dose: 15.0 mg/kg/injection, schedule: Q01DX Z (oral), vehicle: carboxymethylcellulose (CMC) 104 % of control | dose: 30.0 mg/kg/injection, schedule: Q01DX Z (oral), vehicle: carboxymethylcellulose (CMC) 101 % of control | dose: 60.0 mg/kg/injection, schedule: Q01DX Z (oral), vehicle: carboxymethylcellulose (CMC) 98 % of control

Nc1ccc(C(=O)Oc2ccc([N+](=O)[O-])cc2)c(O)c1
inactive: [13] 95 % of control | [20] 100 % of control | [14] 97 % of control | [21] 88 % of control | [15] 87 % of control | [22] 96 % of control

COc1cc(OC)c(OC)cc1/C=C/c1cc[n+](C)c2ccccc12
inactive: dose: 25.0 mg/kg/injection, schedule: Q04DX002 (ip), vehicle: Klucel (hydroxypropylcellulose) (HPC) 95 % of control | dose: 50.0 mg/kg/injection, schedule: Q04DX002 (ip), vehicle: Klucel (hydroxypropylcellulose) (HPC) 101 % of control | dose: 100.0 mg/kg/injection, schedule: Q04DX002 (ip), vehicle: Klucel (hydroxypropylcellulose) (HPC) 109 % of control and 111 % of control

Cc1ncc(C(=O)Nc2ccccc2)[nH]1
inactive: [13] 113 % of control | [20] 105 % of control | [14] 106 % of control | [21] 122 % of control

CCN(CC)CCSC(=O)C(O)(c1ccccc1)c1ccccc1
inactive: [16] 100 % of control

CC(=O)O[C@H]1C[C@@]2(C)[C@@H](C[C@@H](O)[C@H]3[C@@]4(C)CC[C@@H](O)[C@@H](C)[C@@H]4CC[C@@]32C)/C1=C(\CCC=C(C)C)C(=O)O
inactive: dose: 50.0 mg/kg/injection, schedule: Q01DX009 (sc), vehicle: steriod suspending solution 95 % of control | dose: 100.0 mg/kg/injection, schedule: Q01DX001 (ip), vehicle: carboxymethylcellulose (CMC) 97 % of control | dose: 100.0 mg/kg/injection, schedule: Q01DX009 (sc), vehicle: steriod suspending solution 95 % of control | dose: 100.0 mg/kg/injection, schedule: Q04DX003 (ip), vehicle: steriod suspending solution 102 % of control | dose: 200.0 mg/kg/injection, schedule: Q01DX001 (ip), vehicle: carboxymethylcellulose (CMC) 94 % of control | dose: 200.0 mg/kg/injection, schedule: Q01DX009 (sc), vehicle: steriod suspending solution 103 % of control | dose: 200.0 mg/kg/injection, schedule: Q04DX003 (ip), vehicle: steriod suspending solution 102 % of control | dose: 400.0 mg/kg/injection, schedule: Q01DX001 (ip), vehicle: carboxymethylcellulose (CMC) 90 % of control | dose: 400.0 mg/kg/injection, schedule: Q04DX003 (ip), vehicle: steriod suspending solution 101 % of control

Cc1ccc(S(=O)(=O)N=S2CCCC2)cc1
inactive: [13] 97 % of control | [14] 102 % of control | [15] 102 % of control

CC(C(=O)c1cccs1)=C(C(F)(F)F)C(F)(F)F
inactive: [4] 100 % of control | [5] 94 % of control | [6] 98 % of control

CC1CNC(=O)O1 (centres undefined)
inactive: dose: 25.0 mg/kg/injection, schedule: Q01DX009 (ip), vehicle: saline 97 % of control | dose: 50.0 mg/kg/injection, schedule: Q01DX009 (ip), vehicle: saline 97 % of control | dose: 50.0 mg/kg/injection, schedule: Q04DX003 (ip), vehicle: saline 106 % of control | dose: 100.0 mg/kg/injection, schedule: Q01DX009 (ip), vehicle: saline 98 % of control | [17] 100 % of control | dose: 100.0 mg/kg/injection, schedule: Q04DX003 (ip), vehicle: saline 106 % of control | dose: 200.0 mg/kg/injection, schedule: Q01DX009 (ip), vehicle: saline 95 % of control | [18] 91 % of control | dose: 200.0 mg/kg/injection, schedule: Q04DX003 (ip), vehicle: saline 101 % of control | dose: 400.0 mg/kg/injection, schedule: Q01DX009 (ip), vehicle: saline 95 % of control | [19] 91 % of control | dose: 400.0 mg/kg/injection, schedule: Q04DX003 (ip), vehicle: saline 100 % of control
